Target: Skeletal Myofibril ATPase (Rabbit Psoas myofibrils)
Assay: Skeletal Myofibril ATPase Assay
Assay type: biochemical
Conditions: PK/LDH-coupled NADH absorbance at 340 nm
Procedure, shortened: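 Rabbit psoas myofibril ATPase read through a PK-LDH coupled system, as NADH loss at 340 nm every 1.5-2 min for 1 h, in PIPES/CaCl2/EGTA pCa buffer at pH 7.0. Absorbance change normalized to 1% DMSO vehicle (100%) and no change (0%). IC50 from a four-parameter logistic fit with bottom constrained ≥0.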

| Compound | IC50 [µM] |
| --- | --- |
| CCNC(=O)Cn1nc(-c2nc(-c3ccccc3)no2)ccc1=O [Compound 16, N-ethyl-2-(6-oxo-3-(3-phenyl-1,2,4-oxadiazol-5-yl)pyridazin-1(6H)-yl)acetamide] | ≤ 10 |
| O=c1ccc(-c2cccs2)nn1Cc1cccc(Cl)c1 [Compound 56, 2-(3-chlorobenzyl)-6-(thiophen-2-yl)pyridazin-3(2H)-one] | ≤ 10 |
| CCNC(=O)Cn1nc(-c2nc(-c3cc(F)cc(F)c3)no2)ccc1=O [Compound 9, 2-(3-(3-(3,5-difluorophenyl)-1,2,4-oxadiazol-5-yl)-6-oxopyridazin-1(6H)-yl)-N-ethylacetamide] | ≤ 10 |
| CCNC(=O)Cn1nc(-c2nc(-c3cccc(OC(F)F)c3)no2)ccc1=O [Compound 7, 2-(3-(3-(3-(difluoromethoxy)phenyl)-1,2,4-oxadiazol-5-yl)-6-oxopyridazin-1(6H)-yl)-N-ethylacetamide] | ≤ 10 |
| CCNC(=O)Cn1nc(-c2nc(-c3cccc(Cl)c3F)no2)ccc1=O [Compound 3, 2-(3-(3-(3-chloro-2-fluoropheny)-1,2,4-oxadiazol-5-yl)-6-oxopyridazin-1(6H)-yl)-N-ethylacetamide] | ≤ 10 |
| Cn1cc(-c2ccc(=O)n(CC(=O)NCc3ccccc3Cl)n2)cn1 [Compound 54, N-(2-chlorobenzyl)-2-(3-(1-methyl-1H-pyrazol-4-yl)-6-oxopyridazin-1(6H)-yl)acetamide] | 10 to 100 |

Second part, the compound after the results:

| IC50 [µM] | Compound |
| --- | --- |
| > 100 | Cc1ccc(-c2ccc(=O)n(CCOc3cccc(C#N)c3)n2)s1 [Compound 61, 3-(2-(3-(5-methylthiophen-2-yl)-6-oxopyridazin-1(6H)-yl)ethoxy)benzonitrile] |
| 10 to 100 | O=c1ccc(-c2nc(-c3ccccc3Cl)no2)cn1Cc1cccnc1 [Compound 110, 5-(3-(2-chlorophenyl)-1,2,4-oxadiazol-5-yl)-1-(pyridin-3-ylmethyl)pyridin-2(1H)-one] |
| > 100 | Cc1ccc(-c2noc(-c3ccc(=O)n(Cc4cccc(F)c4)n3)n2)cc1 [Compound 71, 2-(3-fluorobenzyl)-6-(3-(p-tolyl)-1,2,4-oxadiazol-5-yl)pyridazin-3(2H)-one] |
| 10 to 100 | COCCn1nc(-c2nc(-c3ccc(F)c(C)c3)no2)ccc1=O [Compound 74, 6-(3-(4-fluoro-3-methylphenyl)-l,2,4-oxadiazol-5-yl)-2-(2-methoxyethyl)pyridazin-3(2H)-one] |
| ≤ 10 | Cc1cccc(-c2noc(-c3ccc(=O)n(Cc4ccc(C#N)nc4)c3)n2)c1 [Compound 103, 5-((2-oxo-5-(3-(m-tolyl)-1,2,4-oxadiazol-5-yl)pyridin-1(2H)-yl)methyl)picolinonitrile] |
| ≤ 10 | Cc1cccc(-c2noc(-c3ccc(=O)n(Cc4ccc(C)nc4)c3)n2)c1 [Compound 96, 1-((6-methylpyridin-3-yl)methyl)-5-(3-(m-tolyl)-1,2,4-oxadiazol-5-yl)pyridin-2(1H)-one] |

Tested on: embryos from zebrafish model of DMD
Assay: not given
Conditions: FIG. 2, Li and Amer, PLoSONE, 2015; cited from earlier work

| Compound | protection of muscles from pathological muscle derangement |
| --- | --- |
| Cc1ccc(S(=O)(=O)NCc2ccccc2)cc1 [BTS, N-benzyl-p-tolyl-sulfonamide] | protect muscles from pathological muscle derangement |

From patent US12643892B2, “Pyridazinone compounds for the treatment of neuromuscular diseases” (Edgewise Therapeutics, Inc., priority 2020, dated 2026)
